Laboratory results taken from US20160311831A1, “Imidazotriazinones as PDE1 Inhibitors” (H. Lundbeck A/S, priority 2015, published 2016).

How the values were obtained:
Type in all cases: biochemical
[1] = biological target: PDE9 (Homo sapiens, UniProt O76083); assay: PDE9 inhibition assay, SPA with 3H-cAMP; settings: compound at 10 microM; 10 nM 3H-cAMP, 1 hr incubation
Description: A PDE9 assay may for example, be performed as follows: The assay is performed in 60 μL samples containing a fixed amount of the relevant PDE enzyme (sufficient to convert 20-25% of the cyclic nucleotide substrate), a buffer (50 mM HEPES7.6; 10 mM MgCl2; 0.02% Tween20), 0.1 mg/mL BSA, 225 pCi of ^3H-labelled cyclic nucleotide substrate, tritium labeled cAMP to a final concentration of 5 nM and varying amounts of inhibitors. Reactions are initiated by addition of the cyclic nucleotide substrate, and reactions are allowed to proceed for one hr at room temperature before being terminated through mixing with 15 μL 8 mg/mL yttrium silicate SPA beads (Amersham). The beads are allowed to settle for one hr in the dark before the plates are counted in a Wallac 1450 Microbeta counter. The measured signal can be converted to activity relative to an uninhibited control (100%) and IC50 values can be calculated using the Xlfit extension to EXCEL.
In the context of the present invention the assay was performed in 60 uL assay buffer (50 mM HEPES pH 7.6; 10 mM MgCl2; 0.02% Tween20) containing enough PDE9 to convert 20-25% of 10 nM ^3H-cAMP and varying amounts of inhibitors. Following a 1 hr incubation the reactions were terminated by addition of 15 uL 8 mg/mL yttrium silicate SPA beads (Amersham). The beads were allowed to settle for one hr in the dark before the plates were counted in a Wallac 1450 Microbeta counter.

[2] = biological target: PDE1C (Homo sapiens, UniProt Q14123); assay: PDE1 inhibition assay (PDE1C), SPA with tritium labelled cAMP; settings: 15 nM tritium labelled cAMP, 1 hr at room temperature
Chain of PDE1C (Q14123 whole entry): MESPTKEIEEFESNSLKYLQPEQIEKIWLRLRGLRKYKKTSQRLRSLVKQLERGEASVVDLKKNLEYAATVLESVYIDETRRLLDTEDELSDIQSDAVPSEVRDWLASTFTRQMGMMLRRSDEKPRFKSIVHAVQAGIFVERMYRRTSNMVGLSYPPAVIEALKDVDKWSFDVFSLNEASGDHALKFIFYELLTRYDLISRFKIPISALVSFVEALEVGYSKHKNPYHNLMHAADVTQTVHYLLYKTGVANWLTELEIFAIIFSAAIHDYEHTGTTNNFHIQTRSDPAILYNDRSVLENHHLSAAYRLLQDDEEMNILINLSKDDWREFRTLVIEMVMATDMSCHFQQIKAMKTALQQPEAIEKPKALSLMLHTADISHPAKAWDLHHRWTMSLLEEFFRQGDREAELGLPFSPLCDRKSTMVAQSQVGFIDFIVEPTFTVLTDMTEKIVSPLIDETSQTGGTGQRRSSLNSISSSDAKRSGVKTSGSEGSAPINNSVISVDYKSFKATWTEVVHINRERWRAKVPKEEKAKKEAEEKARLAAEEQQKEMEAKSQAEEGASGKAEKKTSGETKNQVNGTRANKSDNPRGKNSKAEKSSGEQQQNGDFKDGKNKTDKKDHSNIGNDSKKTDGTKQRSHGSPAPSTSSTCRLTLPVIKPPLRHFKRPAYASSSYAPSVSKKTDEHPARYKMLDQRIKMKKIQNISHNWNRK
Description: (§1) PDE1A, PDE1B and PDE1C assays were performed as follows: the assays was performed in 60 μL samples containing a fixed amount of the PDE1 enzym1 (sufficient to convert 20-25% of the cyclic nucleotide substrate), a buffer (50 mM HEPES pH 7.6; 10 mM MgCl2; 0.02% Tween20), 0.1 mg/mL BSA, 15 nM tritium labelled cAMP and varying amounts of inhibitors. Reactions were initiated by addition of the cyclic nucleotide substrate, and reactions were allowed to proceed for 1 hr at room temperature before being terminated through mixing with 20 μL (0.2 mg) yttrium silicate SPA beads (PerkinElmer). The beads were allowed to settle for 1 hr in the dark before the plates were counted in a Wallac 1450 Microbeta counter. The measured signals were converted to activity relative to an uninhibited control (100%) and IC50 values were calculated using XIFit (model 205, IDBS).

[3] = biological target: PDE1A (Homo sapiens, UniProt P54750); assay: PDE1 inhibition assay (PDE1A), SPA with tritium labelled cAMP; settings: 15 nM tritium labelled cAMP, 1 hr at room temperature
Chain of PDE1A (P54750 whole entry): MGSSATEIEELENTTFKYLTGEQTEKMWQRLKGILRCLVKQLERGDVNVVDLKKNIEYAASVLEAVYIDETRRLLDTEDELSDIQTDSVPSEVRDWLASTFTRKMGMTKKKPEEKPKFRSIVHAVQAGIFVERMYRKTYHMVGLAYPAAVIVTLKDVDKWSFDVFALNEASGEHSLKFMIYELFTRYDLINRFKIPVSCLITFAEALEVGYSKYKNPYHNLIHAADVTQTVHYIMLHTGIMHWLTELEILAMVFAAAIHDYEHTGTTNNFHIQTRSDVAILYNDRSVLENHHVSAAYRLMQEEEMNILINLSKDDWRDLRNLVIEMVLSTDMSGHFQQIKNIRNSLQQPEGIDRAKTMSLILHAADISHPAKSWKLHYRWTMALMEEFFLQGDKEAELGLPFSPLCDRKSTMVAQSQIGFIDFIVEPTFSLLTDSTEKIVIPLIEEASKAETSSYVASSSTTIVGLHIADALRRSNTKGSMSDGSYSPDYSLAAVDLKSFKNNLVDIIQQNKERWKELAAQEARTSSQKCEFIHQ
Description: as §1

[4] = biological target: PDE1B (Homo sapiens, UniProt Q01064); assay: PDE1 inhibition assay (PDE1B), SPA with tritium labelled cAMP; settings: 15 nM tritium labelled cAMP, 1 hr at room temperature
Chain of PDE1B (Q01064 whole entry): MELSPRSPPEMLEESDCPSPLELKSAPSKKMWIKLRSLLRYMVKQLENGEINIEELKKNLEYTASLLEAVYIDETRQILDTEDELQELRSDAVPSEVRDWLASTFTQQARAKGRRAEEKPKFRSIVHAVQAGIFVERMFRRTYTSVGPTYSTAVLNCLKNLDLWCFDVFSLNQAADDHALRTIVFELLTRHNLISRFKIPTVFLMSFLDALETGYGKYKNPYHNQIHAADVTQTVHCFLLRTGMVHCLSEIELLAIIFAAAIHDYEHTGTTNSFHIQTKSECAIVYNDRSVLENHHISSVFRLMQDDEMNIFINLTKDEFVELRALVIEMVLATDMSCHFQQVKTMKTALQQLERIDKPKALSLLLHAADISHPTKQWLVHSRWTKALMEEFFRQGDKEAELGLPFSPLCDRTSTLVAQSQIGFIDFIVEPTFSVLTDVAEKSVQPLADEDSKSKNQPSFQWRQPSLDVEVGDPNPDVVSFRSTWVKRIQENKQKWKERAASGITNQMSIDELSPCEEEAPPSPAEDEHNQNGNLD
Description: as §1

Chain of PDE9 (O76083 whole entry): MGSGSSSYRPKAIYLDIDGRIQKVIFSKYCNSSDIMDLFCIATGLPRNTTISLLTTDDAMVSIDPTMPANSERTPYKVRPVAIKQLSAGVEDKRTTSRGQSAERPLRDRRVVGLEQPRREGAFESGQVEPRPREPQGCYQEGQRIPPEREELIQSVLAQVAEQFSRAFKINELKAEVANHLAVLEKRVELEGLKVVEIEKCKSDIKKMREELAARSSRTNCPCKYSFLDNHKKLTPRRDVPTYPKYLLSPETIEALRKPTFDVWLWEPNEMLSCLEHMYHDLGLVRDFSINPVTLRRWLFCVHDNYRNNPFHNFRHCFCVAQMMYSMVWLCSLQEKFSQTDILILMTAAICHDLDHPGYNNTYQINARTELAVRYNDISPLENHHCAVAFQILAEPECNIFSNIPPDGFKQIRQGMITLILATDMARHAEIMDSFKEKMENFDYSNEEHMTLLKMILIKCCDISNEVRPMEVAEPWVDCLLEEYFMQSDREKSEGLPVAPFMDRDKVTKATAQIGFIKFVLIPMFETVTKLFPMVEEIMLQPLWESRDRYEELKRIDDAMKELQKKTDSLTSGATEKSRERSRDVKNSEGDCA

O=c1c2cnc(C3CCOCC3)n2ncn1Cc1cccc(F)c1 [Example 27, 3-(3-Fluorobenzyl)-7-(tetrahydro-2H-pyran-4-yl)imidazo[5,1-f][1,2,4]triazin-4(3H)-one]
inhibition at 10 µM [1]: 17% | IC50 [2]: 0.436 µM

Cc1ccc(Cc2nn3c(C4CCOCC4)ncc3c(=O)n2CC2CCC(C)CC2)cc1 (single isomer, unassigned) [11 Stereoisomer 2]
% inhibition of PDE9 at 10 microM [1]: 15% | IC50 [3]: 0.008 µM | IC50 [2]: 0.005 µM | IC50 [4]: 0.01 µM

Cc1cccc(Cn2c(C)nn3c(C4CCOCC4)ncc3c2=O)c1 [Example 18, 2-Methyl-3-(3-methylbenzyl)-7-(tetrahydro-2H-pyran-4-yl)imidazo[5,1-f][1,2,4]triazin-4(3H)-one]
inhibition at 10 µM [1]: -30% | IC50 [3]: 0.265 µM | IC50 [2]: 0.02 µM | IC50 [4]: 0.188 µM

Cc1nn2c(C3CCOCC3)ncc2c(=O)n1Cc1cccc(F)c1 [Example 13, 3-(3-Fluorobenzyl)-2-methyl-7-(tetrahydro-2H-pyran-4-yl)imidazo[5,1-f][1,2,4]triazin-4(3H)-one]
inhibition at 10 µM [1]: -4% | IC50 [3]: 0.127 µM | IC50 [2]: 0.029 µM | IC50 [4]: 0.258 µM

COc1ccc(Cn2c(C)nn3c(C4CCOCC4)ncc3c2=O)cc1 [Example 23, 3-(4-Methoxybenzyl)-2-methyl-7-(tetrahydro-2H-pyran-4-yl)imidazo[5,1-f][1,2,4]triazin-4(3H)-one]
inhibition at 10 µM [1]: -4% | IC50 [3]: 0.029 µM | IC50 [2]: 0.021 µM | IC50 [4]: 0.026 µM

Cc1ccc(Cn2c(C)nn3c(C4CCOCC4)ncc3c2=O)cc1 [Example 22, 2-Methyl-3-(4-methylbenzyl)-7-(tetrahydro-2H-pyran-4-yl)imidazo[5,1-f][1,2,4]triazin-4(3H)-one]
inhibition at 10 µM [1]: 18% | IC50 [3]: 0.058 µM | IC50 [2]: 0.077 µM | IC50 [4]: 0.066 µM

Cc1ccc(Cc2nn3c(C4CCOCC4)ncc3c(=O)n2C)cc1 [Example 2, 3-Methyl-2-(4-methylbenzyl)-7-(tetrahydro-2H-pyran-4-yl)imidazo[5,1-f][1,2,4]triazin-4(3H)-one]
inhibition at 10 µM [1]: 4% | IC50 [3]: 0.732 µM | IC50 [2]: 0.984 µM | IC50 [4]: 0.258 µM

O=c1c2cnc(C3CCOCC3)n2ncn1CC1CCCC1 [Example 28, 3-(Cyclopentylmethyl)-7-(tetrahydro-2H-pyran-4-yl)imidazo[5,1-f][1,2,4]triazin-4(3H)-one]
inhibition at 10 µM [1]: 10% | IC50 [2]: 0.086 µM

Cc1nn2c(C3CCOCC3)ncc2c(=O)n1Cc1ccccc1F [Example 20, 3-(2-Fluorobenzyl)-2-methyl-7-(tetrahydro-2H-pyran-4-yl)imidazo[5,1-f][1,2,4]triazin-4(3H)-one]
inhibition at 10 µM [1]: 21% | IC50 [3]: 0.054 µM | IC50 [2]: 0.015 µM | IC50 [4]: 0.139 µM

Cc1ccccc1Cn1c(C)nn2c(C3CCOCC3)ncc2c1=O [Example 21, 2-Methyl-3-(2-methylbenzyl)-7-(tetrahydro-2H-pyran-4-yl)imidazo[5,1-f][1,2,4]triazin-4(3H)-one]
inhibition at 10 µM [1]: 13% | IC50 [3]: 0.367 µM | IC50 [2]: 0.037 µM | IC50 [4]: 0.454 µM

Cc1ccc(Cc2nn3c(C4CCOCC4)ncc3c(=O)n2CC2CCCC2)cc1 [Example 6, 3-(Cyclopentylmethyl)-2-(4-methylbenzyl)-7-(tetrahydro-2H-pyran-4-yl)imidazo[5,1-f][1,2,4]triazin-4(3H)-one]
inhibition at 10 µM [1]: 2% | IC50 [3]: 0.029 µM | IC50 [2]: 0.004 µM | IC50 [4]: 0.063 µM

Cc1nn2c(C3CCOCC3)ncc2c(=O)n1Cc1cccc(Cl)c1 [Example 17, 3-(3-Chlorobenzyl)-2-methyl-7-(tetrahydro-2H-pyran-4-yl)imidazo[5,1-f][1,2,4]triazin-4(3H)-one]
inhibition at 10 µM [1]: 5% | IC50 [3]: 0.063 µM | IC50 [2]: 0.014 µM | IC50 [4]: 0.159 µM

Cc1nn2c(C3CCOCC3)ncc2c(=O)n1Cc1ccccc1 [Example 15, 3-Benzyl-2-methyl-7-(tetrahydro-2H-pyran-4-yl)imidazo[5,1-f][1,2,4]triazin-4(3H)-one]
inhibition at 10 µM [1]: -13% | IC50 [3]: 0.07 µM | IC50 [2]: 0.017 µM | IC50 [4]: 0.162 µM

Cc1ccc(Cc2nn3c(C4CCOCC4)ncc3c(=O)n2CC2CCOCC2)cc1 [Example 9, 2-(4-Methylbenzyl)-7-(tetrahydro-2H-pyran-4-yl)-3-((tetrahydro-2H-pyran-4-yl)methyl)imidazo[5,1-f][1,2,4]triazin-4(3H)-one]
inhibition at 10 µM [1]: 12% | IC50 [3]: 0.583 µM | IC50 [2]: 0.023 µM | IC50 [4]: 0.364 µM

Cc1ccc(Cc2nn3c(C4CCOCC4)ncc3c(=O)n2CC2CCOC2)cc1 (single isomer, unassigned) [12 Stereoisomer 1]
% inhibition of PDE9 at 10 microM [1]: 3% | IC50 [2]: 0.105 µM | IC50 [4]: 0.258 µM

Cc1ccc(Cc2nn3c(C4CCOCC4)ncc3c(=O)n2CC2CCC(C)CC2)cc1 (single isomer, unassigned) [11 Stereoisomer 1]
% inhibition of PDE9 at 10 microM [1]: −9% | IC50 [3]: 0.043 µM | IC50 [2]: 0.069 µM | IC50 [4]: 0.033 µM

Cc1ccc(Cc2nn3c(C4CCOCC4)ncc3c(=O)n2CC(C)C)cc1 [Example 5, 3-isobutyl-2-(4-methylbenzyl)-7-(tetrahydro-2H-pyran-4-yl)imidazo[5,1-f][1,2,4]triazin-4(3H)-one]
inhibition at 10 µM [1]: -3% | IC50 [3]: 0.047 µM | IC50 [2]: 0.038 µM | IC50 [4]: 0.052 µM

O=c1c2cnc(C3CCOCC3)n2ncn1CC1CCCCCC1 [Example 29, 3-(Cycloheptylmethyl)-7-(tetrahydro-2H-pyran-4-yl)imidazo[5,1-f][1,2,4]triazin-4(3H)-one]
inhibition at 10 µM [1]: 21% | IC50 [3]: 0.033 µM | IC50 [2]: 0.025 µM | IC50 [4]: 0.052 µM

Cc1nn2c(C3CCOCC3)ncc2c(=O)n1Cc1ccc(F)cc1 [Example 14, 3-(4-Fluorobenzyl)-2-methyl-7-(tetrahydro-2H-pyran-4-yl)imidazo[5,1-f][1,2,4]triazin-4(3H)-one]
inhibition at 10 µM [1]: 18% | IC50 [3]: 0.077 µM | IC50 [2]: 0.035 µM | IC50 [4]: 0.134 µM

Cc1ccc(Cc2nn3c(C4CCOCC4)ncc3c(=O)n2CC2CCC2)cc1 [Example 10, 3-(Cyclobutylmethyl)-2-(4-methylbenzyl)-7-(tetrahydro-2H-pyran-4-yl)imidazo[5,1-f][1,2,4]triazin-4(3H)-one]
inhibition at 10 µM [1]: -11% | IC50 [3]: 0.245 µM | IC50 [2]: 0.062 µM | IC50 [4]: 0.103 µM

O=c1c2cnc(C3CCOCC3)n2ncn1CC1CCCCC1 [Example 26, 3-(Cyclohexylmethyl)-7-(tetrahydro-2H-pyran-4-yl)imidazo[5,1-f][1,2,4]triazin-4(3H)-one]
inhibition at 10 µM [1]: 8% | IC50 [3]: 0.554 µM | IC50 [2]: 0.103 µM | IC50 [4]: 0.376 µM

Cc1ccc(Cc2nn3c(C4CCOCC4)ncc3c(=O)n2CC2CCCCC2)cc1 [Example 7, 3-(Cyclohexylmethyl)-2-(4-methylbenzyl)-7-(tetrahydro-2H-pyran-4-yl)imidazo[5,1-f][1,2,4]triazin-4(3H)-one]
inhibition at 10 µM [1]: 11% | IC50 [3]: 0.04 µM | IC50 [2]: 0.011 µM | IC50 [4]: 0.026 µM

Cc1nn2c(C3CCOCC3)ncc2c(=O)n1Cc1ccc(Cl)cc1 [Example 24, 3-(4-Chlorobenzyl)-2-methyl-7-(tetrahydro-2H-pyran-4-yl)imidazo[5,1-f][1,2,4]triazin-4(3H)-one]
inhibition at 10 µM [1]: -11% | IC50 [3]: 0.035 µM | IC50 [2]: 0.104 µM | IC50 [4]: 0.061 µM

Cc1nn2c(C3CCOCC3)ncc2c(=O)n1CC1CCCCC1 [Example 1, 3-(Cyclohexylmethyl)-2-methyl-7-(tetrahydro-2H-pyran-4-yl)imidazo[5,1-f][1,2,4]triazin-4(3H)-one]
inhibition at 10 µM [1]: 26% | IC50 [3]: 0.015 µM | IC50 [2]: 0.009 µM | IC50 [4]: 0.03 µM

Cc1ccc(Cc2nn3c(C4CCOCC4)ncc3c(=O)n2CC2CCOC2)cc1 (single isomer, unassigned) [12 Stereoisomer 2]
% inhibition of PDE9 at 10 microM [1]: 7% | IC50 [3]: 0.1 µM | IC50 [2]: 0.151 µM | IC50 [4]: 0.067 µM

Cc1nn2c(C3CCOCC3)ncc2c(=O)n1Cc1ccccc1Cl [Example 16, 3-(2-Chlorobenzyl)-2-methyl-7-(tetrahydro-2H-pyran-4-yl)imidazo[5,1-f][1,2,4]triazin-4(3H)-one]
inhibition at 10 µM [1]: 11% | IC50 [3]: 0.118 µM | IC50 [2]: 0.02 µM | IC50 [4]: 0.22 µM
